According to US7138361B2, “Herbicidal heterocycles” (E. I. du Pont de Nemours and Company, priority 2000, dated 2006):

Assays:
Type in all cases: in vivo
[1] = tested on: goosegrass (Eleusine indica); test: Test C preemergence; settings: for Plant response rating, Goosegrass: scale 0 to 100, 0 no effect, 100 complete control; for Plant response rating (0 to 100), Goosegrass: visual evaluation after 12 to 14 days
How it was run: (§1)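 Seeds are planted and treated before emergence; for the postemergence test, plants at 1- to 4-leaf stage (2–18 cm) receive the same formulation, a solvent blend containing surfactant. Plants stay in the greenhouse 12–14 days, then response is scored visually from 0 (none) to 100 (complete control).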

[2] = tested on: crabgrass (Digitaria sanguinalis); test: Test C preemergence; settings: for Plant response rating, Crabgrass: scale 0 to 100, 0 no effect, 100 complete control; for Plant response rating (0 to 100), Crabgrass: visual evaluation after 12 to 14 days
How it was run: as §1

soybean (Glycine max) = test: Test C preemergence; settings: preemergence; for Plant response rating (0 to 100), Soybean: visual evaluation after 12 to 14 days; for Plant response rating, Soybean: scale 0 to 100, 0 no effect, 100 complete control
How it was run: as §1

[3] = tested on: Surinam grass (Brachiaria decumbens); test: Test C preemergence; settings: for Plant response rating, Surinam grass: scale 0 to 100, 0 no effect, 100 complete control; for Plant response rating (0 to 100), Surinam grass: visual evaluation after 12 to 14 days
How it was run: as §1

Nightshade = test: Test C preemergence; settings: scale 0 to 100, 0 no effect, 100 complete control
[4] = tested on: cocklebur (Xanthium strumarium); test: Test C preemergence; settings: for Plant response rating, Cocklebur: scale 0 to 100, 0 no effect, 100 complete control; for Plant response rating (0 to 100), Cocklebur: visual evaluation after 12 to 14 days
How it was run: as §1

[5] = tested on: woolly cupgrass (Eriochloa villosa); test: Test C preemergence; settings: for Plant response rating, Cupgrass, Woolly: scale 0 to 100, 0 no effect, 100 complete control; for Plant response rating (0 to 100), Cupgrass, Woolly: visual evaluation after 12 to 14 days
How it was run: as §1

[6] = tested on: pigweed (Amaranthus retroflexus); test: Test C preemergence; settings: preemergence; for Plant response rating (0 to 100), Pigweed: visual evaluation after 12 to 14 days; for Plant response rating, Pigweed: scale 0 to 100, 0 no effect, 100 complete control
How it was run: as §1

[7] = tested on: common ragweed (Ambrosia elatior); test: Test C preemergence; settings: preemergence; for Plant response rating (0 to 100), Ragweed, Common: visual evaluation after 12 to 14 days; for Plant response rating, Ragweed, Common: scale 0 to 100, 0 no effect, 100 complete control
How it was run: as §1

corn (Zea mays) = test: Test B preemergence
How it was run: (§2)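 Post-treatment, species sat 13–15 days under greenhouse conditions before visual scoring against controls, 0 (no effect) through 100 (complete control). Application preemergence to sown seeds or postemergence at 1- to 4-leaf stage, using a non-phytotoxic solvent/surfactant formulation.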

[8] = tested on: velvetleaf (Abutilon theophrasti); test: Test B preemergence
How it was run: as §2

[9] = tested on: giant foxtail (Setaria faberii); test: Test B preemergence
How it was run: as §2

[10] = tested on: crabgrass (Digitaria sanguinalis); test: Test B preemergence
How it was run: as §2

[11] = tested on: Surinam grass (Brachiaria decumbens); test: Test B preemergence
How it was run: as §2

[12] = tested on: morning glory (Ipomoea hederacea); test: Test B preemergence
How it was run: as §2

[13] = tested on: lambsquarters (Chenopodium album); test: Test B preemergence
How it was run: as §2

[14] = tested on: cocklebur (Xanthium strumarium); test: Test B preemergence
How it was run: as §2

[15] = tested on: barnyardgrass (Echinochloa crus-galli); test: Test B preemergence
How it was run: as §2

rice (Oryza saliva) = test: Test B preemergence
How it was run: as §2

[16] = tested on: pigweed (Amaranthus retroflexus); test: Test B preemergence
How it was run: as §2

[17] = Preemergence, Rate 500 g/ha, scale 0 to 100, 0 no effect, 100 complete control
[18] = preemergence, Rate 125 g/ha, scale of 0 to 100 where 0 is no effect and 100 is complete control, 13 to 15 days

CC1(c2ccn(C3SCN(c4cccc(C(F)(F)F)c4)C3=O)n2)CC1 (centres unmarked) [Compound 64]
Plant response rating, Goosegrass ([1]; Rate 62 g/ha): 100
Plant response rating (0 to 100), Goosegrass ([1]; preemergence, Rate 250 g/ha): 100
Plant response rating (0 to 100), Goosegrass ([1]; preemergence, Rate 500 g/ha): 100
Plant response rating, Goosegrass ([1]; preemergence, Rate 125 g/ha): 100
Plant response rating, Crabgrass ([2]; Rate 62 g/ha): 100
Plant response rating (0 to 100), Crabgrass ([2]; preemergence, Rate 250 g/ha): 100
Plant response rating (0 to 100), Crabgrass ([2]; preemergence, Rate 500 g/ha): 100
Plant response rating, Crabgrass ([2]; preemergence, Rate 125 g/ha): 100
Plant response rating (0 to 100), Soybean (soybean (Glycine max); Rate 500 g/ha): 30
Plant response rating, Soybean (soybean (Glycine max); Rate 125 g/ha): 20
Plant response rating, Soybean (soybean (Glycine max); Rate 250 g/ha): 20
Plant response rating, Surinam grass ([3]; Rate 62 g/ha): 0
Plant response rating (0 to 100), Surinam grass ([3]; preemergence, Rate 250 g/ha): 90
Plant response rating (0 to 100), Surinam grass ([3]; preemergence, Rate 500 g/ha): 100
Plant response rating, Surinam grass ([3]; preemergence, Rate 125 g/ha): 50
Plant response rating, Nightshade (Nightshade; Rate 62 g/ha): 30
Plant response rating, Nightshade (Nightshade; Rate 125 g/ha): 70
Plant response rating, Nightshade (Nightshade; Rate 250 g/ha): 90
Plant response rating, Cocklebur ([4]; Rate 62 g/ha): 0
Plant response rating (0 to 100), Cocklebur ([4]; preemergence, Rate 250 g/ha): 20
Plant response rating (0 to 100), Cocklebur ([4]; preemergence, Rate 500 g/ha): 30
Plant response rating, Cocklebur ([4]; preemergence, Rate 125 g/ha): 0
Plant response rating, Cupgrass, Woolly ([5]; Rate 62 g/ha): 30
Plant response rating (0 to 100), Cupgrass, Woolly ([5]; preemergence, Rate 250 g/ha): 90
Plant response rating (0 to 100), Cupgrass, Woolly ([5]; preemergence, Rate 500 g/ha): 100
Plant response rating, Cupgrass, Woolly ([5]; preemergence, Rate 125 g/ha): 50
Plant response rating (0 to 100), Pigweed ([6]; Rate 500 g/ha): 100
Plant response rating, Pigweed ([6]; Rate 125 g/ha): 100
Plant response rating, Pigweed ([6]; Rate 250 g/ha): 100
Plant response rating (0 to 100), Ragweed, Common ([7]; Rate 500 g/ha): 90
Plant response rating, Ragweed, Common ([7]; Rate 125 g/ha): 50
Plant response rating, Ragweed, Common ([7]; Rate 250 g/ha): 80
Plant response rating, Corn (corn (Zea mays); [17]): 20
Plant response rating, Corn (corn (Zea mays); [18]): 0
Plant response rating, Velvetleaf [8, 17]: 0
Plant response rating, Velvetleaf [8, 18]: 0
Plant response rating, Foxtail, Giant [9, 17]: 90
Plant response rating, Foxtail, Giant [9, 18]: 0
Plant response rating, Crabgrass [10, 17]: 100
Plant response rating, Crabgrass [10, 18]: 40
Plant response rating, Surinam grass [11, 17]: 60
Plant response rating, Surinam grass [11, 18]: 30
Plant response rating, Morningglory [12, 17]: 10
Plant response rating, Morningglory [12, 18]: 0
Plant response rating, Lambsquarters [13, 17]: 100
Plant response rating, Lambsquarters [13, 18]: 100
Plant response rating, Cocklebur [14, 17]: 10
Plant response rating, Cocklebur [14, 18]: 0
Plant response rating, Barnyardgrass [15, 17]: 90
Plant response rating, Barnyardgrass [15, 18]: 50
Plant response rating, Rice (rice (Oryza saliva); [17]): 0
Plant response rating, Rice (rice (Oryza saliva); [18]): 0
Plant response rating, Pigweed [16, 17]: 100
Plant response rating, Pigweed [16, 18]: 100

CC1(c2ccn(C3OCN(c4cccc(C(F)(F)F)c4)C3=O)n2)CC1 (centres unmarked) [Compound 62]
Plant response rating, Goosegrass ([1]; Rate 62 g/ha): 80
Plant response rating (0 to 100), Goosegrass ([1]; preemergence, Rate 250 g/ha): 100
Plant response rating (0 to 100), Goosegrass ([1]; preemergence, Rate 500 g/ha): 100
Plant response rating, Goosegrass ([1]; preemergence, Rate 125 g/ha): 90
Plant response rating, Crabgrass ([2]; Rate 62 g/ha): 0
Plant response rating (0 to 100), Crabgrass ([2]; preemergence, Rate 250 g/ha): 100
Plant response rating (0 to 100), Crabgrass ([2]; preemergence, Rate 500 g/ha): 100
Plant response rating, Crabgrass ([2]; preemergence, Rate 125 g/ha): 90
Plant response rating (0 to 100), Soybean (soybean (Glycine max); Rate 250 g/ha): 0
Plant response rating (0 to 100), Soybean (soybean (Glycine max); Rate 500 g/ha): 0
Plant response rating, Soybean (soybean (Glycine max); Rate 125 g/ha): 0
Plant response rating, Surinam grass ([3]; Rate 62 g/ha): 0
Plant response rating (0 to 100), Surinam grass ([3]; preemergence, Rate 250 g/ha): 60
Plant response rating (0 to 100), Surinam grass ([3]; preemergence, Rate 500 g/ha): 80
Plant response rating, Surinam grass ([3]; preemergence, Rate 125 g/ha): 30
Plant response rating, Nightshade (Nightshade; Rate 62 g/ha): 0
Plant response rating, Nightshade (Nightshade; Rate 125 g/ha): 0
Plant response rating, Cocklebur ([4]; Rate 62 g/ha): 0
Plant response rating (0 to 100), Cocklebur ([4]; preemergence, Rate 250 g/ha): 0
Plant response rating (0 to 100), Cocklebur ([4]; preemergence, Rate 500 g/ha): 0
Plant response rating, Cocklebur ([4]; preemergence, Rate 125 g/ha): 0
Plant response rating, Cupgrass, Woolly ([5]; Rate 62 g/ha): 30
Plant response rating (0 to 100), Cupgrass, Woolly ([5]; preemergence, Rate 250 g/ha): 90
Plant response rating (0 to 100), Cupgrass, Woolly ([5]; preemergence, Rate 500 g/ha): 90
Plant response rating, Cupgrass, Woolly ([5]; preemergence, Rate 125 g/ha): 50
Plant response rating (0 to 100), Pigweed ([6]; Rate 250 g/ha): 0
Plant response rating (0 to 100), Pigweed ([6]; Rate 500 g/ha): 100
Plant response rating, Pigweed ([6]; Rate 125 g/ha): 0
Plant response rating (0 to 100), Ragweed, Common ([7]; Rate 250 g/ha): 0
Plant response rating (0 to 100), Ragweed, Common ([7]; Rate 500 g/ha): 0
Plant response rating, Ragweed, Common ([7]; Rate 125 g/ha): 0
Plant response rating, Corn (corn (Zea mays); [17]): 0
Plant response rating, Corn (corn (Zea mays); [18]): 0
Plant response rating, Velvetleaf [8, 17]: 0
Plant response rating, Velvetleaf [8, 18]: 0
Plant response rating, Foxtail, Giant [9, 17]: 80
Plant response rating, Foxtail, Giant [9, 18]: 0
Plant response rating, Crabgrass [10, 17]: 90
Plant response rating, Crabgrass [10, 18]: 0
Plant response rating, Surinam grass [11, 17]: 0
Plant response rating, Surinam grass [11, 18]: 0
Plant response rating, Morningglory [12, 17]: 0
Plant response rating, Morningglory [12, 18]: 0
Plant response rating, Lambsquarters [13, 17]: 100
Plant response rating, Lambsquarters [13, 18]: 100
Plant response rating, Cocklebur [14, 17]: 0
Plant response rating, Cocklebur [14, 18]: 0
Plant response rating, Barnyardgrass [15, 17]: 90
Plant response rating, Barnyardgrass [15, 18]: 0
Plant response rating, Rice (rice (Oryza saliva); [17]): 30
Plant response rating, Rice (rice (Oryza saliva); [18]): 0
Plant response rating, Pigweed [16, 17]: 100
Plant response rating, Pigweed [16, 18]: 100
